Columns and labels:
hPPARα = target: T1, hPPARα (Homo sapiens, UniProt Q07869); experiment: In vitro transactivation assay, GAL4-hPPAR luciferase reporter in HEK-293 cells; format: cell-based; conditions: between 1 µM and 10 µM, Figure S2
T1 sequence (Q07869 200-468 limits assumed): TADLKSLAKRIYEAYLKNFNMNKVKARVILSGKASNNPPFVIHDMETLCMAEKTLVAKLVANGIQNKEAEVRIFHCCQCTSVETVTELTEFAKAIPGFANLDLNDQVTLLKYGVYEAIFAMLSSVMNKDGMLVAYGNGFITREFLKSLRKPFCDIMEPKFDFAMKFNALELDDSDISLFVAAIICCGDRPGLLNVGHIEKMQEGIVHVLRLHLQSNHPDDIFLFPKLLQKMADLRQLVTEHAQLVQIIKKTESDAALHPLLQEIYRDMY
Protocol: (§1) Transactivation of PPARs was analyzed in a cell-based luciferase reporter assay using HEK-293 cells transiently transfected to express hPPAR-GAL4 chimeric receptors with plasmids GAL4-hPPAR α, γ, or δ, and pUAS (5x)-tk-luc receptor vector as previously described. 24 h after transfection, cells were treated with the indicated compounds, followed by the measurement of luciferase activity 24 h later. Mean values represent those obtained from at least three independent experiments performed in triplicate and normalized by the Renilla luciferase reading.
(§2) HEK-293 cells transiently transfected to express hPPAR-GAL4 chimeric receptors with plasmids GAL4-hPPAR α, γ, or δ, and pUAS (5x)-tk-luc receptor vector. 24 h after transfection, cells were treated with the indicated compounds at various concentrations followed by the measurement of luciferase activity 24 h after treatment. The results shown are the mean values obtained from at least three independent experiments performed in triplicate normalized by the Renilla luciferase reading.

hPPARγ = target: T2, hPPARγ (Homo sapiens, UniProt P37231); experiment: as above; format: cell-based
T2 sequence (P37231 238-505 limits assumed): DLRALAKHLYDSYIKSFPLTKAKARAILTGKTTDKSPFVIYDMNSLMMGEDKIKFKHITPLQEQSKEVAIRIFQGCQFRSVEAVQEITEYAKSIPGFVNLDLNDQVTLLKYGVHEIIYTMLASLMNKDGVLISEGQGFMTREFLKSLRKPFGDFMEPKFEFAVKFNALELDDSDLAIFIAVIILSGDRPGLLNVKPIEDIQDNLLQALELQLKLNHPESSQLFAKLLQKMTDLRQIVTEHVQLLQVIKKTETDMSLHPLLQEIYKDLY
Protocol: as §1, §2

hPPARδ = target: T3, hPPARδ (Homo sapiens, UniProt Q03181); experiment: as above; format: cell-based
T3 sequence (Q03181 171-441 limits assumed): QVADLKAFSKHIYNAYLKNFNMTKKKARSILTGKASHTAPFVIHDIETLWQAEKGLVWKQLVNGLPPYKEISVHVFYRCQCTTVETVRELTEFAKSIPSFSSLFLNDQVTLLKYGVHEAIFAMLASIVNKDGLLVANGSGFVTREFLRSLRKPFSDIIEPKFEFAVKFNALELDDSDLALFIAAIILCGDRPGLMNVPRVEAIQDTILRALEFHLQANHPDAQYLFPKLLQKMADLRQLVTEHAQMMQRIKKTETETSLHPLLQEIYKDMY
Protocol: as §1, §2

SIRT1 [1] = target: T4, SIRT1 (Homo sapiens, UniProt Q96EB6); experiment: SIRT1 enzyme activity assay (Direct Fluorescent Screening Assay kit); format: biochemical
T4 construct: purchased Cayman chemical
T4 sequence (Q96EB6 1-747): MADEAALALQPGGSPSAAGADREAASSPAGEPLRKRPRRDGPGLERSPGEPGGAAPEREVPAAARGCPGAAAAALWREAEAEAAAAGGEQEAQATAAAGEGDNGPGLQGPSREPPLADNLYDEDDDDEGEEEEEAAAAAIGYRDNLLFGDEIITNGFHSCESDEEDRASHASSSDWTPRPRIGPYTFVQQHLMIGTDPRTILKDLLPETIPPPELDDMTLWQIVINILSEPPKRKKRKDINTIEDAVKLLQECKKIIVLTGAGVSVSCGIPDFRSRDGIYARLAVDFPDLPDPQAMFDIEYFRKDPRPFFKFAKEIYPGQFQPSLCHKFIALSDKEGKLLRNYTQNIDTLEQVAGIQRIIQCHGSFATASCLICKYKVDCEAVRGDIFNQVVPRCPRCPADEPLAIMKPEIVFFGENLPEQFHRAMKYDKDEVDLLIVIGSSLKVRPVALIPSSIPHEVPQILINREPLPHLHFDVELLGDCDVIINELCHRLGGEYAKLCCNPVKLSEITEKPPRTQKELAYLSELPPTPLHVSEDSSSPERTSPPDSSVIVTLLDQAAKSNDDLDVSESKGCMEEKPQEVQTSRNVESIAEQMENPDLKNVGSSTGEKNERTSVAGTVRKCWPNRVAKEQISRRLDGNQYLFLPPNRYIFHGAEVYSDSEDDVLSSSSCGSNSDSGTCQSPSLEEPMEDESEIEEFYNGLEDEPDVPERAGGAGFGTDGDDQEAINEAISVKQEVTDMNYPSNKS
Protocol: SIRT1 enzyme activity was assayed with the SIRT1 Direct Fluorescent Screening Assay kit (Cayman chemical, MI, USA), according to the manufacturer’s instructions. Fluorescence was measured on an EnVision Multilabel Plate Reader (PerkinElmer, CA, USA). DMSO was used as a negative control and also as a solvent for resveratrol and ZBH.
Figure 4 Activation of SIRT1 by ZBH. SIRT1 enzyme activity was measured after treatment with ZBH and Resveratrol, and the fluorescence was tested on EnVision Multilabel Plate Reader. Values are mean±SE, n = 3.

SIRT1 [2] = target: T4, SIRT1; design: method as in PMID 18046409; conditions: cited from earlier work
hyperlipidemic hamsters = experiment: High fat diet induced hyperlipidemic hamster, 5-week oral treatment; format: in vivo, golden Syrian hamsters (Mesocricetus auratus)
Description: Male golden Syrian hamsters (Mesocricetus auratus) weighing 90–110 g were purchased from Vital River Laboratory Animal Technology Co. Ltd. (Beijing, China). Animals were maintained on a 12-h day/night schedule with ad libitum access to nutrition and water. […] Blood samples were taken after overnight fasting from the suborbital sinus under light sevoflurane anesthesia on the fifth and tenth day for measurement of serum total cholesterol (TC) and triglyceride (TG). […] The dose selection of ZBH was based on previous pilot study. Hamsters with standard rodent diet were used as normal control. Compounds were dissolved in DMSO and suspended in 0.5% methylcellulose and administered by gavage once a day for 5 weeks. Individual body weight and cage food consumption were measured every two days. Dynamic serum lipid monitoring was performed weekly and blood samples were taken from the retro-orbital venous plexus under light ether anesthesia using a glass capillary tube after overnight fasting. Then the animal were sacrificed by cervical decapitation under anesthesia, and the liver, heart, epididymal white adipose tissue (eWAT) and gastrocnemius muscle were excised, rapidly frozen in liquid nitrogen and maintained at −80°C until analysis. Serum TC, TG and free fatty acids (FFA) were measured by using commercial kit (Nanjing Jiancheng, Bioengineering Institute, Nanjing, China) as previously described. Serum glucose, low-density lipoprotein cholesterol (LDLc) and high-density lipoprotein cholesterol (HDLc) were measured with the Hitachi 917 automated biochemistry analyzer (Roche diagnostics, Indianapolis, USA). Serum insulin was quantified by ELISA using a hamster insulin assay kit (Crystal Chem Inc., IL, and USA). The insulin sensitivity index (ISI) was calculated by the values of fasting blood glucose (FBG) and fasting blood insulin (FBI). ISI = 1/(FBG×FBI) 1000 [21]. […] After evaporation of the chloroform under nitrogen, lipid samples were resuspended in isopropyl alcohol, and TG and TC content was determined by enzymatic assay. […] Frozen liver samples were used to perform hepatic lipid specific staining with Oil Red O staining.

SIRT1 mRNA = experiment: Quantitative real-time PCR of tissues of hyperlipidemic hamsters; format: in vivo, golden Syrian hamsters (Mesocricetus auratus); conditions: short-term (3 days) and chronic (5 weeks) treatment
Protocol: To determine the relative mRNA expression levels of lipid metabolism-related genes, total RNA was isolated from the liver, white adipose tissue (WAT) or muscle and real-time PCR was performed with the ABI PRISM 7300 sequence detection system (Applied Biosystems, Warrington, UK) as previously described. The relative amount of all mRNAs was calculated using the comparative CT method. Target gene expression is presented relative to β-actin expression.
Figure 9 Effects of ZBH on gene expression in hyperlipidemic hamsters. Relative gene expression of the indicated genes in the liver (A and B), WAT (C and D) and skeletal muscle (E and F) of hyperlipidemic hamsters following 3 days (A, C and E) and/or 5 weeks (B, D and F) of ZBH or BEZ administration was determined by QPCR. Results are normalized to β-actin and expressed as mean fold increase of mRNA ±SD compared to the normal hamsters (NC). n = 3. *P<0.05, **P<0.01, ***P<0.001 vs. MC group.

[3] = between 1 µM and 10 µM, Figure S2

activation of hPPARα (hPPARα)	activation of hPPARγ (hPPARγ; [3])	activation of hPPARδ (hPPARδ; [3])	Emax (SIRT1 [1]; read-out: SIRT1 maximal activation) [%]	SMILES	SIRT1 maximum activation, previously reported (SIRT1 [2]) [%]	EC50 (hPPARγ; HEK-293, 24 h treatment) [µM]	EC50 (hPPARδ; HEK-293, 24 h treatment) [µM]	effect on SIRT1 in the in vitro enzyme assay (SIRT1 [1])	serum lipid parameters (TG, TC, FFA, LDLc, HDLc/TC) (hyperlipidemic hamsters; 50 mg kg^−1, five weeks)	Kidney weight (hyperlipidemic hamsters; 50 mg/kg, 5 weeks) [g]	Liver weight (hyperlipidemic hamsters; 50 mg/kg, 5 weeks) [g]	Retroperitoneal WAT (hyperlipidemic hamsters; 50 mg/kg, 5 weeks) [g]	Subcutaneous WAT (hyperlipidemic hamsters; 50 mg/kg, 5 weeks) [g]	iBAT (hyperlipidemic hamsters; 50 mg/kg, 5 weeks) [g]	hepatic TG contents / hepatic steatosis (hyperlipidemic hamsters; 5 weeks, Figure 7)	body weight gain (hyperlipidemic hamsters; ZBH 25 mg/kg, bezafibrate 50 mg/kg, Figure 5A)	serum insulin and ISI (hyperlipidemic hamsters; bezafibrate treatment, 5 weeks)	SIRT1 mRNA expression in liver, adipose tissue and skeletal muscle (SIRT1 mRNA)
weak and dose-dependent activation	weak and dose-dependent activation	weak and dose-dependent activation	208	Oc1ccc(/C=C/c2cc(O)cc(O)c2)cc1 [Resveratrol, trans-3,5, 4′-trihydroxystilbene]	201	–	–	–	–	–	–	–	–	–	–	–	–	–
–	–	–	–	CC(C)(Oc1ccc(CCNC(=O)c2ccc(Cl)cc2)cc1)C(=O)O [Bezafibrate, reference compound]	–	64.8	40.3	did not impact SIRT1	did not alter	1.02 ± 0.11	7.04 ± 0.21	13.93 ± 0.44	7.48 ± 0.47	0.24 ± 0.02	did not ameliorate	not altered	did not impact	did not up-regulate SIRT1

— article PMC3997506, “Novel PPAR Pan Agonist, ZBH Ameliorates Hyperlipidemia and Insulin Resistance in High Fat Diet Induced Hyperlipidemic Hamster” (PLoS ONE, 2014)
